The values that follow come from patent publication US20070191420A1, “Kinase inhibitors” (Devgen NV, priority 2004, published 2007).

Counter-ions that a name gives are not always drawn.

Holding throughout (assay): Fluorescence polarization (FP) PKC inhibition assay, Protein Kinase C Assay Kit, Red (Invitrogen)
Assay type in all cases: biochemical

One experiment has as its target T1, PKC epsilon (Homo sapiens, UniProt Q02156).
T1 construct: purchased Invitrogen 6906
T1 sequence (Q02156 1-737): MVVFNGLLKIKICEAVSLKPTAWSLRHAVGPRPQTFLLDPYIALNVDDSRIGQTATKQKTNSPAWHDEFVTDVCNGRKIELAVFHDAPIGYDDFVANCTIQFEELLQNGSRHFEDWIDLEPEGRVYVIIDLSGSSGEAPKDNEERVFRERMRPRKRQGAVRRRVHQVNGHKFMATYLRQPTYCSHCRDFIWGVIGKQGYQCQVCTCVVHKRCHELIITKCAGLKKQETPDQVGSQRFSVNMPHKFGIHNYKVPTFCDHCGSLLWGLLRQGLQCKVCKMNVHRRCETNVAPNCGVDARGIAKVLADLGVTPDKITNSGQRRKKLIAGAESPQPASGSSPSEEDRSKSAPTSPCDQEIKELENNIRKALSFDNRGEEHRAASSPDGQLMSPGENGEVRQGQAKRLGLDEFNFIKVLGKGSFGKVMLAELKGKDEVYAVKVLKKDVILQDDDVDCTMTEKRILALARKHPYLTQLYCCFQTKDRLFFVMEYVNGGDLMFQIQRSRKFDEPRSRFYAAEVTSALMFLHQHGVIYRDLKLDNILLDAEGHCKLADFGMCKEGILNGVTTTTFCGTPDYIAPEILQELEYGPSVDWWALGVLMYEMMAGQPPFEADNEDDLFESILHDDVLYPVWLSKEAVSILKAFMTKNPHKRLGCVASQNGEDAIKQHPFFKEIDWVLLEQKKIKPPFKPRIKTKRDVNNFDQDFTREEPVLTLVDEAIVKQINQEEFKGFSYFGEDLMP
The note with it: enzyme 10 ng/ml, ATP 2.5 μM. How it is done: (§1) The substrate used was […]
(§2) To perform the assay, 2 μl of a solution of the compound to be tested in DMSO (at each concentration) was added to 6 μl of a solution of the enzyme in 10 mM HEPES, 5 mM dithiotreitol, 0.1% Triton X-100, pH 7,4.
(§3) After incubating for 30 minutes at room temperature, 4 μl of a mixture of ATP and the protein substrate in 60 mM HEPES (pH7.4), 15 mM MgCl2, 0.3 mM CaCl2, 0.06% NP40 was added.
(§4) After incubating for 80 minutes at room temperature, 3 μl of a mix solution of 500 mM EDTA (stop solution) and the Rhodamine-based PKC Red Tracer (from the Protein Kinase C Assay Kit) in BGG/phosphate buffer (pH7.4) with 0.02% NaN3 and 0.1% Triton X-100 was added and 5 μl of a the Anti-Phosphoserine antibody (also from the Protein Kinase C Assay Kit) in BGG/phosphate buffer (pH7.4) with 0.02% NaN3.
(§5) The results were fitted to a curve using the XL-Fit algorithm and IC50 values were calculated for each fitted curve, again using the XL-Fit algorithm.

In the next experiment the target is T2, PKC gamma (Homo sapiens, UniProt P05129).
T2 construct: purchased Invitrogen 9343
The note with it: enzyme 20 ng/ml, ATP 2.5 μM. How it is done:
as §1, §2, §3, §4, §5

A further experiment has as its target T3, PKC theta (Homo sapiens, UniProt Q04759).
T3 construct: purchased Invitrogen 7101
The note with it: enzyme 20 ng/ml, ATP 2.5 μM. On the procedure: as §1, §2, §3, §4, §5

In another experiment the target is T4, PKC zeta (Homo sapiens, UniProt Q05513).
T4 construct: purchased Invitrogen 9232
T4 sequence (Q05513 1-592): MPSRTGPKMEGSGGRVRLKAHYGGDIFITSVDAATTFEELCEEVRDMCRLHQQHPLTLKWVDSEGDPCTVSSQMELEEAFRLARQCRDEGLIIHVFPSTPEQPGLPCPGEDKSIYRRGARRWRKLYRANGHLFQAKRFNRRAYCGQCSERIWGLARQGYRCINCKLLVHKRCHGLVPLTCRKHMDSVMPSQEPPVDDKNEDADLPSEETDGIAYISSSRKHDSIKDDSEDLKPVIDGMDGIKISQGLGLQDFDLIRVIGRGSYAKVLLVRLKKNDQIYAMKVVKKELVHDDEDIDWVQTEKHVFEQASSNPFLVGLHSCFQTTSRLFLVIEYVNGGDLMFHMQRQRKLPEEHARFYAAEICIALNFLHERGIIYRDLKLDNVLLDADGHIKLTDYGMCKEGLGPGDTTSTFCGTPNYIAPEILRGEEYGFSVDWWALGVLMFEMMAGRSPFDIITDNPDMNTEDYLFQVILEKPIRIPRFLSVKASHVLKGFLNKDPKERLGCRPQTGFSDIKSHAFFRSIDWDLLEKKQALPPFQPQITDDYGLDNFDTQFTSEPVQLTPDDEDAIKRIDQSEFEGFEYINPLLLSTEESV
The following applies: enzyme 20 ng/ml, ATP 2.5 μM. How it is done: as §2, §3, §4, §5

T3 sequence (Q04759 whole entry): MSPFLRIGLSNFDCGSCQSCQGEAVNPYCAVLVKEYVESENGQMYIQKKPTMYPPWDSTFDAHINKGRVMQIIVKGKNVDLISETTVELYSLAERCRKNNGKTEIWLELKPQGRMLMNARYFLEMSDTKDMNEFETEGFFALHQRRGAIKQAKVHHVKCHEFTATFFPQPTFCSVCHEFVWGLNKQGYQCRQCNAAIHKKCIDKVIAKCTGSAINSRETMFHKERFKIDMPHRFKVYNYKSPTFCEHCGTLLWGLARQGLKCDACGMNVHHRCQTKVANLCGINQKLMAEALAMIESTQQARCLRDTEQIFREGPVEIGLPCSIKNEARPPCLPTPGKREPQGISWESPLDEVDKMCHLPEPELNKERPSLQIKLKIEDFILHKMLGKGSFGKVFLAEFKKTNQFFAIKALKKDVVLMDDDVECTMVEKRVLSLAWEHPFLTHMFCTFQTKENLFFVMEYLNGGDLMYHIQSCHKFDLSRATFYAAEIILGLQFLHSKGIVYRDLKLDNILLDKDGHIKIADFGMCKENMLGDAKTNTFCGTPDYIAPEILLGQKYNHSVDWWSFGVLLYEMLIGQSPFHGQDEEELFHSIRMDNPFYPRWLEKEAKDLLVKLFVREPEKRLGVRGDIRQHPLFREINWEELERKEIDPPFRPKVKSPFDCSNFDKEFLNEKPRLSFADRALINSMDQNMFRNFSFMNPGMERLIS

Regarding `CC(=O)NCc1ccc(C(=O)Nc2ccncc2)cc1` [Compound 16], the IC50 against PKC epsilon (substrate […] 1 μM), against PKC gamma (substrate […] 1 μM), at PKC theta (substrate […] 1 μM) and at PKC zeta (substrate […] 1 μM) was above 100 µM each time.

With “4-aminomethyl-2,5-dimethyl-N-pyridin-4-yl-benzamide dihydrochloric acid salt [Compound 39]”, the IC50 was 8.3 µM on PKC epsilon (substrate RFARKGSLRQKNV 1 μM), above 100 µM on PKC gamma (substrate RFARKGSLRQKNV 1 μM), 16.8 µM on PKC theta (substrate RFARKGSLRQKNV 1 μM) and above 100 µM against PKC zeta (substrate RFARKGSLRQKNV 1 μM).

In the case of `NCc1ccc(C(=O)Nc2ccncc2)cc1` [Compound 20, 4-aminomethyl-N-pyridin-4-yl-benzamide dihydrochloric acid salt], the IC50 is 6.23 µM at PKC epsilon (substrate […] 1 μM), above 100 µM against PKC gamma (substrate […] 1 μM), 9.14 µM on PKC theta (substrate […] 1 μM) and 51.4 µM against PKC zeta (substrate […] 1 μM).

As to `NCc1ccc(NCc2ccncc2)cc1` [Compound 11, (4-aminomethyl-phenyl)-pyridin-4-ylmethyl-amine dihydrochloric acid salt], the IC50 against PKC epsilon (substrate […] 1 μM), against PKC gamma (substrate […] 1 μM), against PKC theta (substrate […] 1 μM) and against PKC zeta (substrate […] 1 μM) was above 100 µM each time.

As to `CC(N)c1ccc(C(=O)Nc2ccncc2)cc1` (centres unmarked) [Compound 23, 4-(1-amino-ethyl)-N-pyridin-4-yl-benzamide dihydrochloric acid salt], the IC50 was 1.21 µM against PKC epsilon (substrate […] 1 μM), above 100 µM against PKC gamma (substrate […] 1 μM), 2.25 µM against PKC theta (substrate […] 1 μM) and 22.1 µM on PKC zeta (substrate […] 1 μM).

Consider `CC(C)(C)CC(N)c1ccc(C(=O)Nc2ccncc2)cc1` (centres unmarked) [Compound 25, 4-(1-amino-3,3-dimethyl-butyl)-N-pyridin-4-yl-benzamide dihydrochloric acid salt], for which the IC50 was 4.98 µM on PKC epsilon (substrate […] 1 μM), above 100 µM against PKC gamma (substrate […] 1 μM), 12.2 µM against PKC theta (substrate […] 1 μM) and above 100 µM against PKC zeta (substrate […] 1 μM).

Consider `NC(c1ccc(C(=O)Nc2ccncc2)cc1)C1CC1` (centres unmarked) [Compound 26], for which the IC50 is 0.72 µM against PKC epsilon (substrate […] 1 μM), 35.9 µM on PKC gamma (substrate […] 1 μM), 3.9 µM at PKC theta (substrate […] 1 μM) and 41.5 µM against PKC zeta (substrate […] 1 μM).

`O=C(Nc1ccnc2[nH]ccc12)c1ccc2c(c1)CCNC2` [Compound 43]: the IC50 at PKC epsilon (substrate […] 1 μM) is 9.9 µM; against PKC gamma (substrate […] 1 μM), 21.8 µM; on PKC theta (substrate […] 1 μM), 8.6 µM; against PKC zeta (substrate […] 1 μM), above 100 µM.

Regarding `NCc1ccc(C(=O)Nc2ccncc2)o1` [Compound 15, 5-(amino-methyl)-furan-2-carboxylic acid pyridine-4-ylamide dihydrochloric acid salt], the IC50 against PKC epsilon (substrate […] 1 μM), against PKC gamma (substrate […] 1 μM), against PKC theta (substrate […] 1 μM) and at PKC zeta (substrate […] 1 μM) was above 100 µM in each case.

On to `NC[C@H]1CC[C@H](C(=O)Nc2ccccc2)CC1` [Compound 3, Trans-4-aminomethyl-cyclohexanecarboxylic acid phenylamide hydrochloric acid salt], for which the IC50 was above 100 µM against PKC epsilon (substrate […] 1 μM), 90.5 µM against PKC gamma (substrate […] 1 μM), above 100 µM against PKC theta (substrate […] 1 μM) and 40.3 µM against PKC zeta (substrate […] 1 μM).

For the molecule `NC[C@H]1CC[C@H](C(=O)Nc2ccncc2)CC1` [Compound 19, Trans-4-aminomethyl-cyclohexanecarboxylic acid pyridin-4-ylamide], the concentration for half-maximal inhibition (IC50) at PKC epsilon (substrate […] 1 μM) is 5.12 µM; on PKC gamma (substrate […] 1 μM), above 100 µM; against PKC theta (substrate […] 1 μM) it was 7.35 µM; at PKC zeta (substrate […] 1 μM) it was 24.3 µM.

With `CC(N)c1ccc(C(=O)Nc2ccncc2)s1` (racemic) [Compound 22, 5-(1-amino-ethyl)-thiophene-2-carboxylic acid pyridinedin-4-ylamide], the IC50 against PKC epsilon (substrate […] 1 μM) is 16 µM; against PKC gamma (substrate […] 1 μM), above 100 µM; on PKC theta (substrate […] 1 μM), 9.01 µM; against PKC zeta (substrate […] 1 μM), 45.9 µM.

Take `NC[C@H]1CC[C@H](C(=O)NCc2ccncc2)CC1` [Compound 5, Trans-4-aminomethyl-cyclohexanecarboxylic acid (pyridine-4-ylmethyl)-amide]: the IC50 at PKC epsilon (substrate […] 1 μM), on PKC gamma (substrate […] 1 μM), against PKC theta (substrate […] 1 μM) and against PKC zeta (substrate […] 1 μM) was above 100 µM in each case.

Turning to `NC[C@H]1CC[C@H](C(=O)Nc2ccccn2)CC1` [Compound 7, Trans-4-aminomethyl-cyclohexanecarboxylic acid pyridin-2-ylamide], the IC50 at PKC epsilon (substrate […] 1 μM), against PKC gamma (substrate […] 1 μM), on PKC theta (substrate […] 1 μM) and against PKC zeta (substrate […] 1 μM) was above 100 µM throughout.

With `NCc1ccc(-c2nc(-c3ccncc3)no2)cc1` [Compound 13, 4-(3-pyridin-4-yl-[1,2,4]oxadiazol-5-yl-benzylaminedihydrochloric acid salt], the IC50 on PKC epsilon (substrate […] 1 μM), against PKC gamma (substrate […] 1 μM), against PKC theta (substrate […] 1 μM) and on PKC zeta (substrate […] 1 μM) was above 100 µM each time.

For the molecule `NCCCCCC(=O)Nc1ccncc1` [Compound 1, 6-Amino-hexanoic acid pyridine-4-ylamide dihydrochloric acid salt], the IC50 against PKC epsilon (substrate […] 1 μM), on PKC gamma (substrate […] 1 μM), at PKC theta (substrate […] 1 μM) and on PKC zeta (substrate […] 1 μM) was above 100 µM throughout.

For `COc1ccc(C(N)c2ccc(C(=O)Nc3ccncc3)cc2)cc1` (centres unmarked) [Compound 37, 4-[1-amino-(4-methoxyphenyl)-methyl]-N-pyridin-4-yl-benzamide], the IC50 against PKC epsilon (substrate […] 1 μM) was 18.7 µM; against PKC gamma (substrate […] 1 μM), above 100 µM; against PKC theta (substrate […] 1 μM), 80.3 µM; at PKC zeta (substrate […] 1 μM), above 100 µM.

On to `NC(c1ccccc1)c1ccc(C(=O)Nc2ccncc2)cc1` (centres unmarked) [Compound 35, 4-(1-amino-phenyl-methyl)-N-pyridin-4-yl-benzamide], for which the IC50 was 8.04 µM at PKC epsilon (substrate […] 1 μM), above 100 µM at PKC gamma (substrate […] 1 μM), 11.3 µM against PKC theta (substrate […] 1 μM) and above 100 µM on PKC zeta (substrate […] 1 μM).

`NC(c1ccc(C(=O)Nc2ccnc3[nH]ccc23)cc1)C1CCCC1` (centres unmarked) [Compound 42]: the IC50 was 0.3 µM at PKC epsilon (substrate […] 1 μM), 17.3 µM against PKC gamma (substrate […] 1 μM), 0.63 µM against PKC theta (substrate […] 1 μM) and above 100 µM against PKC zeta (substrate […] 1 μM).

Take `O=C(Nc1ccncc1)c1ccc2c(c1)CCNC2` [Compound 32, 1,2,3,4-tetrahydro-isoquinoline-6-carboxylic acid pyridinedin-4-yl-amide dihydrochloric acid salt]: the IC50 against PKC epsilon (substrate […] 1 μM) was 30.5 µM; against PKC gamma (substrate […] 1 μM), above 100 µM; against PKC theta (substrate […] 1 μM) it was 31.6 µM; at PKC zeta (substrate […] 1 μM) it was above 100 µM.
